Experimental findings from paper PMC10376843, “Discovery of Novel Myristic Acid Derivatives as N-Myristoyltransferase Inhibitors: Design, Synthesis, Analysis, Computational Studies and Antifungal Activity” (Antibiotics, 2023) are described below.

For assay [1], the system named is Candida albicans (ATCC 10231). Nature of the assay: antifungal micro-broth dilution assay, C. albicans. Format: cell-based. The following applies: ATCC10231, 48 h. The protocol: (§1) A microbroth dilution method was used to test the synthesized compounds. In vitro tests for antifungal activity against Candida albicans (C. albicans) and Aspergillus niger (A. niger) were carried out in triplicate at concentrations ranging from 100 μg/mL to 6.25 μg/mL. The percentage cytotoxicity and MIC50 value for each compound were calculated from the observed absorbance measured at 590 nm, and the results are shown in Table 5. Fluconazole was used as a reference drug, and the antifungal activities were expressed as minimum inhibitory concentration (MIC50) values in μg/mL.
(§2) From HIMEDIA M210 Mumbai, India, test fungal strains were acquired. The conventional micro-broth dilution method was used to test the in vitro antifungal activity of the synthesized compounds against the fungi Candida albicans (ATCC 10231) and Aspergillus niger (ATCC 16888) from the American Type Culture Collection. The acquired fungal strains were used in the current experiment after being subcultured in SDB (Sabouraud dextrose broth). The 48 h young cultures were created and kept at 26 °C before the experiment.
(§3) According to the CLSI’s standard M27 recommended methodology, the SDB was treated with the compounds, which were dissolved in DMSO via the serial dilution method in sterile circumstances to achieve the necessary concentration levels. All the cultures that had been exposed to the compounds were serially diluted twice in growth media, inoculated to about 1 × 10^5 CFU/mL and incubated at 26 °C for 48 h. Subsequently, using a UV spectrophotometer, the absorbance at 590 nm of each culture was determined. The formula was used to compute the viability percentage.
(§4) Percentage viability = ([…]) × 100
(§5) The percentage inhibition was calculated using the formula (100 - cell viability) and plotted in the graph to determine the MIC50 value for each compound (Figure 8) and (Figure 9).
(§6) GraphPad Prism 8.0.2 software (San Diego, CA, USA) was used for statistical analysis. The MIC50 value was established via a nonlinear regression analysis.

Assay [2] has as its system Aspergillus niger (ATCC 16888). The experiment in a line: antifungal micro-broth dilution assay, A. niger. In kind it is cell-based. The following applies: read-out: MIC50 A. niger. The protocol:
as §1, §2, §3, §4, §5, §6
For orientation: Dilution methods test growth across graded concentrations, often in twofold steps.

For assay [3], the target named is N-Myristoyltransferase (NMT). Nature of the assay: in vitro biochemical NMT inhibition assay (fluorescence detection of CoA). The conditions noted are these: 0.1 nM to 10,000 nM; excitation 380 nm, emission 470 nm. The protocol:
The potency of the myristic acid derivatives was determined via an in vitro NMT assay. Coenzyme A (CoA) was detected as a byproduct of an enzymatic reaction. Fluorescence was measured at an excitation wavelength of 380 nm and an emission wavelength of 470 nm. In this assay, the intensity of fluorescence was […], giving a signal (Figure 7).
The NMT protein used in the study was from the supplier Ray Biotech. The assay was performed in 96-well black PP microplates with the myristic acid derivatives in concentrations ranging from 0.1 nM to 10,000 nM. The solutions were prepared in a buffer containing 20 mM of potassium phosphate (pH 7.9–8.0) and 0.5 mM of ethylenediaminetetraacetic acid (EDTA), 0.1% (v/v) Triton X-100, and a final concentration of 2.7% (v/v) dimethyl sulfoxide (DMSO). Fluorescence was measured at an excitation wavelength of 380 nm and an emission wavelength of 470 nm. These readings were obtained on an EnSight Multimode Microplate Reader, and we plotted the response vs. concentration (log nM), ranging from 0.1 nM to 10,000 nM, to obtain the IC50 values using Graph Pad Prism, according to the reported standard procedure.

[4] abbreviates: ATCC 10231, 26 °C, 100 to 6.25 μg/mL, absorbance 590 nm, read-out: MIC50 C. albicans.
Where [5] appears, read: ATCC16888, ATCC 16888, 48 h, 26 °C, 100 to 6.25 μg/mL, absorbance 590 nm.

pIC50: −log10 of the molar value. In brackets after ≈: the same amount, converted by molar mass. Read-outs that look alike come from different tables or passages of the source.

By pIC50 is commonly meant the negative decadic logarithm of the IC50, by convention in mol/L. A low value points to a large IC50. Turning to `CCCCCCCCCCCCCC(=O)Nc1ccccn1` [Compound 3u, N-(pyridine-2-yl) tetradecanamide], the IC50 in assay [1] (setting [4]) amounted to 10.6 µg/mL (≈ 34.9 µM); in assay [2] (setting [5]) it was 14.4 µg/mL (≈ 47.2 µM). In assay [3], this compound had a pIC50 of 6.08.
For the compound `CCCCCCCCCCCCCC(=O)N(CC)c1ccccc1` [Compound 3q, N-ethyl-N-phenyltetradecanamide], the IC50 in assay [1] (setting [4]) turned out to be 28.4 µg/mL (≈ 85.7 µM); in assay [2] (setting [5]), 28.5 µg/mL (≈ 86.1 µM). The pIC50 in assay [3] is under 5.82.
As for `CCCCCCCCCCCCCC(=O)Nc1cccc(C)c1` [Compound 3k, N-(m-tolyl) tetradecanamide], the figures for the IC50 in assay [1] (setting [4]) and in assay [2] (setting [5]) were 10.8 µg/mL (≈ 33.9 µM) and 59.6 µg/mL (≈ 188 µM), respectively. The same compound gave a pIC50 in assay [3] of 5.89.
For the compound `CCCCCCCCCCCCCC(=O)Nc1ccc(C(F)(F)F)cc1` [Compound 3s, N-(4-(trifluoromethyl)phenyl)tetradecanamide], the values for the IC50 in assay [1] (setting [4]) and in assay [2] (setting [5]) were 38.8 µg/mL (≈ 104 µM) and 34.3 µg/mL (≈ 92.3 µM), respectively. In assay [3], this compound had a pIC50 of under 5.82.
For the compound `CCCCCCCCCCCCCC(=O)Nc1ccc(OCC)cc1` [Compound 3l, N-(4-ethoxyphenyl) tetradecanamide], the IC50 in assay [1] (setting [4]) is 15 to 22 µg/mL (≈ 43.2 to 63.3 µM); in assay [2] (setting [5]), 75.9 µg/mL (≈ 218 µM). In assay [3], this compound showed a pIC50 of under 5.82.
On the same counts, the results for `CCCCCCCCCCCCCC(=O)Nc1nc(C)cs1` [Compound 3v, N-(4-methylthiazol-2-yl) tetradecanamide] are 32.4 µg/mL (≈ 99.8 µM), 22.1 µg/mL (≈ 68.3 µM) and under 5.82.
On the same counts, the results for `CCCCCCCCCCCCCC(=O)N(C)c1ccccc1` [Compound 3o, N-methyl-N-phenyltetradecanamide] are 15 to 22 µg/mL (≈ 47.2 to 69.3 µM), 94.2 µg/mL (≈ 297 µM) and under 5.82.
On the same counts, the results for `CCCCCCCCCCCCCC(=O)N1CCOCC1` [Compound 3n, 1-morpholinotetradeca-1-one] are 27.6 µg/mL (≈ 92.8 µM), 31.4 µg/mL (≈ 106 µM) and under 5.82.
For the compound `OC(Cn1cncn1)(Cn1cncn1)c1ccc(F)cc1F` [FLZ, Fluconazole, reference compound], the IC50 was 17.8 µg/mL (≈ 58 µM) in assay [1] (setting [4]) and 16.3 µg/mL (≈ 53.2 µM) in assay [2] (setting [5]).
On to `CCCCCCCCCCCCCC(=O)NC1CCCCC1` [Compound 3m, N-cyclohexyltetradecanamide], for which the IC50 in assay [1] (read-out: MIC50 C. albicans, ATCC 10231, 26 °C, 100 to 6.25 μg/mL, absorbance 590 nm) is 15 to 22 µg/mL (≈ 48.5 to 71.1 µM); in assay [2] (ATCC16888, 48 h), 14.7 µg/mL (≈ 47.4 µM). The compound further gave a pIC50 in assay [3] of 6.06.
For the compound `CCCCCCCCCCCCCC(=O)Nc1ccc(O)cc1` [Compound 3t, N-(4-hydroxyphenyl) tetradecanamide], the values for the IC50 in assay [1] (setting [4]) and in assay [2] (setting [5]) were 12.9 µg/mL (≈ 40.5 µM) and 17.4 µg/mL (≈ 54.5 µM), respectively. Also, the pIC50 in assay [3] is 6.00.
On the same counts, the results for `CCCCCCCCCCCCCC(=O)Nc1ccc(F)cc1` [Compound 3r, N-(4-fluorophenyl) tetradecanamide] are 11.9 µg/mL (≈ 37 µM), 15.4 µg/mL (≈ 48 µM) and 5.83.
`CCCCCCCCCCCCCC(=O)O` [Myristic acid] gave a negative-log IC50 (pIC50) in assay [3] of 5.38.
For the compound `CCCCCCCCCCCCCC(=O)Nc1ccccc1` [Compound 3p, N-phenyltetradecanamide], the IC50 was 15 to 22 µg/mL (≈ 49.4 to 72.5 µM) in assay [1] (setting [4]) and 24.8 µg/mL (≈ 81.6 µM) in assay [2] (setting [5]). Also, the pIC50 in assay [3] is under 5.82.
